Source: patent US20070197517A1, “Combination therapy for hyperproliferative disease” (Pfizer Inc., priority 2002, published 2007)
Where a name gives a salt, the structure may show the parent alone.

Experiments:
[1] = test system: Human Non Small Cell Lung Carcinoma EBC-1; test: Anti-tumor efficacy of paclitaxel (Taxol) with Compound X, s.c. EBC-1 xenograft; format: in vivo, Nu/Nu mice; details: vs Gelucire vehicle day 15
Description: Exponentially grown human non-small cell lung carcinoma EBC-1 cells [(RPMI 1640 with 10% FBS, and pen/strep (Gibco)] were harvested and inoculated s.c. (10^7 cells/mouse, 200 μl) into the right flank of female Nu/Nu mice (˜20 grams; Charles River Laboratories, MA.). 7 days after inoculation, tumor-bearing animals of approximately 150 mm^3 in size were separated into groups of 5 animals each.
Compound X (the mesylate salt of 3-(4-Bromo-2,6-difluoro-benzyloxy)-5-[3-(4-pyrrolidin-1-yl-butyl)-ureido}-isothiazole-4-carboxylic acid amide) was formulated in 5% Gelucire (Gattefosse Inc. France) and dosed po., qd×15 at 12.5 and 100 mg/kg. Taxol® (MeadJohnson Oncology Products, Princeton, N.J.) was formulated in 0.9% sterile saline and dosed ip., qd×5 at 20 mg/kg. For control purposes one group received 5% Gelucire only (200 μl/animal, po, qd×15).
(§1) Animal body weight and tumor measurements were obtained at regular intervals. Tumor volume (mm^3) was calculated using the formula length (mm)×width (mm)×width (mm)×0.5.
Mean tumor volume in Gelucire vehicle group on day 15 was used for the % growth inhibition calculation.

[2] = test system: Human Colon Carcinoma Colo-205; test: Anti-tumor efficacy of CPT-11 with Compound X, s.c. Colo-205 xenograft; format: in vivo, Nu/Nu mice; details: vs Gelucire vehicle day 12
Description: (§2) Exponentially grown human colon carcinoma Colo-205 cells [RPMI 1640 with 10% FBS, and pen/strep (Gibco)] were harvested and inoculated subcutaneously (5×10^6 cells/mouse, 200 μl) into the right flank of female Nu/Nu mice (˜20 grams; Charles River Laboratories, MA). 9 days after inoculation, tumor-bearing animals of approximately 150 mm^3 in size were separated into groups of 7 animals each.
CPT-11 (Camptosar®, Pharmacia & Upjohn, Kalamazoo, Mich.) was formulated in 0.9% saline and dosed iv×1 at 25 and 75 mg/kg. One group received 0.9% saline only (200 μl/animal, iv×1) which served as the control for the experiment. The mesylate salt of 3-(4-Bromo-2,6-difluoro-benzyloxy)-5-[3-(4-pyrrolidin-1-yl-butyl)-ureido}-isothiazole-4-carboxylic acid amide was formulated in 5% Gelucire (Gattefosse Inc., France) and dosed po, qd×12 at 25, 50 and 100 mg/kg. One group received 5% Gelucire only, (200 μl/animal, po, qd×12) which served as the vehicle control for the experiment.
as §1
(§3) Mean tumor volume in Gelucire vehicle group on day 12 was used for the % growth inhibition calculation.

[3] = test system: Human Non Small Cell Lung Carcinoma EBC-1; test: Anti-tumor efficacy of carboplatin with Compound X, s.c. EBC-1 xenograft; format: in vivo; details: vs saline vehicle day 14
Description: Exponentially grown human non-small cell lung carcinoma EBC-1 cells [RPMI 1640 with 10% FBS, and pen/strep (Gibco)] were harvested and inoculated subcutaneously (10^7 cells/mouse, 200 μl) into the right flank of female Nu/Nu mice (˜20 grams; Charles River Laboratories, MA). 7 days after inoculation, tumor-bearing animals of approximately 175 mm^3 in size were separated into groups of 8 animals each.
Carboplatin (Bristol Oncology Products, Princeton, N.J.) was formulated in 0.9% saline and dosed ip., q3d×4 at 25 and 50 mg/kg. One group received 0.9% saline only (200 μl/animal, ip, q3d×4) which served as the control for the experiment. […] One group received 5% Gelucire only, (200 μl/animal, po, qd×14) which served as the vehicle control for the experiment.
as §1
Mean tumor volume in saline vehicle group on day 14 was used for the % growth inhibition calculation.

[4] = test system: Human Breast Carcinoma MDA-MB-231; test: Anti-tumor efficacy of doxorubicin with Compound X, s.c. MDA-MB-231 xenograft; format: in vivo, Nu/Nu mice; details: vs Gelucire vehicle day 24
Description: Exponentially grown human breast carcinoma MDA-MB-231 cells [DMEM with 10% FBS, and pen/strep (Gibco)] were harvested and inoculated subcutaneously (3-5×10^6 cells/mouse, 200 μl) into the right flank of female Nu/Nu mice (˜20 grams; Charles River Laboratories, MA). 36 days after inoculation, tumor-bearing animals of approximately 75 mm^3 in size were separated into control (n=19) or experimental groups of animals (n=7 each).
[…] The mesylate salt of 3-(4-Bromo-2,6-difluoro-benzyloxy)-5-[3-(4-pyrrolidin-1-yl-butyl)-ureido}-isothiazole-4-carboxylic acid amide was formulated in 5% Gelucire (Gattefosse Inc., France) and dosed po, qd×24 at 12.5, 25, 50 and 100 mg/kg. One group received 5% Gelucire only, (200 μl/animal, po, qd×24) which served as the vehicle control for the experiment.
as §1
Mean tumor volume in Gelucire vehicle group on day 24 was used for the % growth inhibition calculation.

[5] = test system: Human Pancreatic Carcinoma Capan-1; test: Anti-tumor efficacy of gemcitabine hydrochloride and Compound X, s.c. Capan-1 xenograft; format: in vivo, Nu/Nu mice; details: for % Tumor Growth Inhibition: vs Gelucire vehicle day 13
Description: (10^7 cells/mouse, 200 μl) into the right flank of female Nu/Nu mice (˜20 grams; […] An overview of each of the groups and the treatment is set forth below in the table. [table] Animal body weight and tumor measurements were obtained at regular intervals. […] Mean tumor volume in Gelucire vehicle group on day 13 was used for % growth inhibition calculation.

[6] = test system: Human Colon Carcinoma Colo-205; test: Anti-tumor efficacy of 5-FU with Compound X, s.c. Colo-205 xenograft; format: in vivo; details: vs Gelucire vehicle day 12
Description: as §2
5-FU (ICN Pharmaceuticals, Inc., Costa Mesa, Calif.) was formulated in 0.9% saline and dosed iv×1 at 25 and 100 mg/kg. One group received 0.9% saline only (200 μl/animal, iv×1) which served as the control for the experiment. The mesylate salt of 3-(4-Bromo-2,6-difluoro-benzyloxy)-5-[3-(4-pyrrolidin-1-yl-butyl)-ureido}-isothiazole-4-carboxylic acid amide was formulated in 5% Gelucire (Gattefosse Inc., France) and dosed po, qd×12 at 25, 50 and 100 mg/kg. One group received 5% Gelucire only, (200 μl/animal, po, qd×12) which served as the vehicle control for the experiment.
as §1, §3

[7] = Compound X 25 mg/kg, po, qd × 12
[8] = Compound X 50 mg/kg, po, qd × 12
[9] = Compound X 100 mg/kg, po, qd × 12

Question: For `CC(=O)O[C@H]1C(=O)[C@@]2(C)[C@H]([C@H](OC(=O)c3ccccc3)[C@]3(O)C[C@H](OC(=O)[C@H](O)[C@@H](NC(=O)c4ccccc4)c4ccccc4)C(C)=C1C3(C)C)[C@]1(OC(C)=O)CO[C@@H]1C[C@@H]2O` [Taxol ®, Paclitaxel, reference compound], which “% Tumor Growth Inhibition” value ([1]; Taxol 20 mg/kg, ip, qd × 5) is on record?
Answer: 75%

Question: Which “% tumor growth” value ([2]; CPT-11 25 mg/kg, iv × 1, growth instead of inhibition) does the source give for `CCc1c2c(nc3ccc(OC(=O)N4CCC(N5CCCCC5)CC4)cc13)-c1cc3c(c(=O)n1C2)COC(=O)[C@]3(O)CC` [CPT-11, irinotecan HCl, reference compound] here?
Answer: (7% Tumor Growth)

Question: And the “% Tumor Growth Inhibition” value ([2]; CPT-11 75 mg/kg, iv × 1)?
Answer: 5%

Question: For `NC(=O)c1c(OCc2c(F)cc(Br)cc2F)nsc1NC(=O)NCCCCN1CCCC1` [Compound X, 3-(4-Bromo-2,6-difluoro-benzyloxy)-5-[3-(4-pyrrolidin-1-yl-butyl)-ureido}-isothiazole-4-carboxylic acid amide], which “% Tumor Growth Inhibition” value ([1]; Compound X 12.5 mg/kg, po, qd × 15) is on record?
Answer: 34%

Question: And the “% Tumor Growth Inhibition” value ([1]; Compound X 100 mg/kg, po, qd × 15)?
Answer: 72%

Question: And the “% Tumor Growth Inhibition” value ([3]; Compound X 100 mg/kg, po, qd × 4)?
Answer: 67%

Question: And the “% tumor growth” value ([4]; Compound X 12.5 mg/kg, po, qd × 24, growth instead of inhibition)?
Answer: (10% tumor growth)

Question: And the “% Tumor Growth Inhibition” value ([4]; Compound X 25 mg/kg, po, qd × 24)?
Answer: 24%

Question: What about the “% Tumor Growth Inhibition” value ([4]; Compound X 50 mg/kg, po, qd × 24) of the same compound?
Answer: 46%

Question: What about the “% Tumor Growth Inhibition” value ([4]; Compound X 100 mg/kg, po, qd × 24) of the same compound?
Answer: 49%

Question: What about the “% Tumor Growth Inhibition” value ([5]; Group 2: Compound X 25 mg/kg, po, qd × 13) of the same compound?
Answer: 16%

Question: And the “% Tumor Growth Inhibition” value ([5]; Group 3: Compound X 100 mg/kg, po, qd × 13)?
Answer: 46%

Question: And the “% Tumor Growth Inhibition” value [6, 7]?
Answer: 21%

Question: What about the “% Tumor Growth Inhibition” value [6, 8] of the same compound?
Answer: 47%

Question: And the “% Tumor Growth Inhibition” value [6, 9]?
Answer: 64%

Question: What about the “% Tumor Growth Inhibition” value [2, 7] of the same compound?
Answer: 9%

Question: And the “% Tumor Growth Inhibition” value [2, 8]?
Answer: 28%

Question: And the “% Tumor Growth Inhibition” value [2, 9]?
Answer: 66%

Question: For `Nc1ccn([C@@H]2O[C@H](CO)[C@@H](O)C2(F)F)c(=O)n1` [Gemcitabine HCl, Gemcitabine hydrochloride], which “% Tumor Growth Inhibition” value ([5]; Group 4: Gemcitabine HCl 1 mg/kg, ip, q3d × 4) is on record?
Answer: 0%

Question: And the “% Tumor Growth Inhibition” value ([5]; Group 5: Gemcitabine HCl 5 mg/kg, ip, q3d × 4)?
Answer: 26%

Question: And the mean tumor regression ([5]; Group 6: Gemcitabine HCl 80 mg/kg, ip, q3d × 4, day 1 volume of group = 100%)?
Answer: 66% regression*

Question: And the “% Tumor Growth Inhibition” value ([5]; Group 6: Gemcitabine HCl 80 mg/kg, ip, q3d × 4)?
Answer: 83%

Question: Which results are given for `COc1cccc2c1C(=O)c1c(O)c3c(c(O)c1C2=O)C[C@@](O)(C(=O)CO)C[C@@H]3O[C@H]1C[C@H](N)[C@H](O)[C@H](C)O1` [Doxorubicin, reference compound]?
Answer: % Tumor Growth Inhibition ([4]; Doxorubicin 2.5 mg/kg, ip × 1): 7%; % Tumor Growth Inhibition ([4]; Doxorubicin 10 mg/kg, ip × 1): 48%

Question: Which “% Tumor Growth Inhibition” value ([3]; Carboplatin 25 mg/kg, ip, q3d × 4) does the source give for `N.N.O=C([O-])C1(C(=O)[O-])CCC1.[Pt+2]` [Carboplatin, cis-diammine-1,1-cyclobutanedicarboxylato-platinum II] here?
Answer: 0%

Question: And the “% Tumor Growth Inhibition” value ([3]; Carboplatin 50 mg/kg, ip, q3d × 4)?
Answer: 31%

Question: How did the “% Tumor Growth Inhibition” value ([6]; 5-FU 25 mg/kg, iv × 1) turn out when `O=c1[nH]cc(F)c(=O)[nH]1` [Compound 5-FU, 5-fluorouracil, reference compound] was run?
Answer: 24%

Question: And the “% Tumor Growth Inhibition” value ([6]; 5-FU 100 mg/kg, iv × 1)?
Answer: 59%
